From US7144721B1, “Treatment of wounds” (The Secretary of the State of Defense, Defence Science and …, priority 1999, dated 2006)
Square brackets hold non-standard residues; d marks the D form. Peptide text beside a SMILES is read from it. * marks the point of attachment. Sta = CC(C)C[C@H](N)[C@@H](O)CC(=O)O; Isovaleryl = CC(C)CC(=O)*

Columns and labels:
Format in all cases: biochemical
[1] = tested on: exopeptidase (metalloproteinase activity) of Lucilia sericata ES; test: Leucine aminopeptide hydrolysis by Lucilia sericata ES
Text: (§1) In addition to the predominant serine proteinase activity detected in the ES secretions of Lucilia sericata other less predominant activity is present. The presence of an aspartyl and metalloproteinase activity has been detected though no cysteinyl activity is shown. […] This inhibition reflects the presence of an exopeptidase with a metalloproteinase enzymic nature.

[2] = tested on: fibronectin, laminin and collagens I, III, IV and V; test: Degradation of ECM/wound components by larval ES secretions
[3] = tested on: trypsin-like serine proteinase activity in Lucilia sericata ES; test: Tosyl-Gly-Pro-Arg-AMC hydrolysis by Lucilia sericata ES in the presence of APMSF and PMSF
Procedure: (§2) The activity of Lucilia sericata ES (0.25 μg) against Tosyl-Gly-Pro-Arg-AMC (a) and against Suc-Ala-Ala-Phe-AMC (b) in the presence of APMSF and PMSF was investigated using different presentations of ES as follows:
(a) • A. ES • B. ES pre-incubated with 0.025 mM APMSF • C. ES pre-incubated with 0.05 mM APMSF • D. ES pre-incubated with 1 mM PMSF
(§3) The results for (a) reveal the “trypsin-like” serine proteinase activity present in Lucilia sericata ES. The hydrolysis of Tosyl-Glyc-Pro-Arg-AMC (selective for the serine proteinases thrombin and plasmin) was inhibited by 1 mM PMSF and 0.05 mM APMSF. […] The results provide further evidence of the presence in ES of two different sub-classes of serine proteinase.

[4] = tested on: chymotrypsin-like serine proteinase activity in Lucilia sericata ES; test: Suc-Ala-Ala-Phe-AMC hydrolysis by Lucilia sericata ES in the presence of APMSF and PMSF
Procedure: as §2
(b) • E. ES • F. ES pre-incubated with 0.2 mM APMSF • G. ES pre-incubated with 1 mM PMSF
as §3

[5] = Lipase activity of ES secretions; details: pre-incubated with the inhibitor
[6] = tested on: Lucilia sericata ES serine proteinase activity; test: FITC-casein hydrolysis by Lucilia sericata ES at pH8 in the presence of PMSF/APMSF
Procedure: The activity of Lucilia sericata ES in FITC-casein hydrolysis at pH8 was investigated using different presentations of ES (0.25 μg) as follows:
The proteolytic activity of Lucilia sericata ES was inhibited following pre-incubation with the irreversible serine proteinase inhibitor PMSF. […] PMSF is dissolved in ethanol and the effect of the solvent on the activity of the ES was negligible. In contrast, approximately 50% of residual serine proteinase activity from ES was detected in the cases where the ES had been pre-incubated with the irreversible “trysin-like” specific inhibitor APMSF. Residual activity in the presence of APMSF indicates the presence of a chymotrypsin-like enzyme.

[7] = tested on: trypsin-like serine proteinase (aminobenzamidine elution peak) and flow-through proteinases of Lucilia sericata ES; test: Residual proteinase activity of aminobenzamidine agarose column fractions with APMSF
Procedure: The trypsin-like serine proteinase was purified by affinity chromatography of Lucilia sericata ES on aminobenzamidine agarose. The column matrix (1 ml) was equilibrated with 20 ml of 0.025M Tris-HCl buffer pH 8.0 containing 0.5M NaCl. The crude ES (0.5 ml, 70 μg/ml protein) was diluted with an equal volume of buffer before application to the column. Fractions (0.5 ml) were collected throughout the chromatography. After washing with 6.5 times column volume of buffer to remove unbound protein, the free aminobenzamidine ligand (2 ml 400 μM) was used to elicit the elution of bound material. Absorbance readings of the fractions at 280 nm was used to establish the positions of the unbound (flow-through) and bound peaks which were then collected for assay.
Aminobenzamidine agarose binds trypsin-like serine proteinases. Following application of larval enzyme secretions to the column, unbound material passed directly through and was collected as “flow-through” (peak I). The addition of free aminobenzamidine to the column buffer elicited elution of the bound proteinase (peak II). The unbound (flow-through) material contained proteinase activity unaffacted by APMSF (possibly including a a chrymotrypsin-like enzyme), whereas the activity in the aminobenzamidine elution peak was substantially abolished (80%) by APMSF, indicating purification of a trypsin-like serine proteinase activity.

[8] = tested on: aspartyl activity of Lucilia sericata ES; test: Aspartyl proteinase activity of ES by FITC-casein hydrolysis at pH 5.0
Text: as §1

[9] = ES (0.25 μg) pre-incubated with 1 mM inhibitor
[10] = ES (0.25 μg) pre-incubated with 0.2 mM inhibitor

c1cnc2c(c1)ccc1cccnc12 [1,10-phenanthroline]
inhibition of leucine aminopeptide hydrolysis [1]: inhibited | inhibition of the degradation of laminin and fibronectin by larval secretions [2]: not significantly

O=S(=O)(F)Cc1ccccc1 [PMSF, phenyl methanesulphonyl fluoride]
residual activity (%) against Tosyl-Gly-Pro-Arg-AMC [3, 9]: 0% | residual activity (%) against Suc-Ala-Ala-Phe-AMC [4, 9]: 1.3% | inhibition of the degradation of laminin and fibronectin by larval secretions [2]: inhibited | lipase activity of ES secretions pre-incubated with inhibitor [5]: not detected | activity (%) of ES in FITC-casein hydrolysis [6, 10]: 13.8% | activity (%) of ES in FITC-casein hydrolysis ([6]; ES (0.25 μg) pre-incubated with 0.6 mM inhibitor): 18%

N=C(N)c1ccc(CS(=O)(=O)F)cc1 [APMSF, 4-(amidinophenyl) methane sulphonyl fluoride]
residual activity (%) against Tosyl-Gly-Pro-Arg-AMC ([3]; ES (0.25 μg) pre-incubated with 0.025 mM inhibitor): 14.3% | residual activity (%) against Tosyl-Gly-Pro-Arg-AMC ([3]; ES (0.25 μg) pre-incubated with 0.05 mM inhibitor): 3.6% | activity abolished by inhibitor ([7]; aminobenzamidine elution peak (peak II)): 80% | effect of inhibitor on proteinase activity ([7]; unbound (flow-through) material (peak I)): unaffacted | residual activity (%) against Suc-Ala-Ala-Phe-AMC [4, 10]: 86.8% | inhibition of the degradation of laminin and fibronectin by larval secretions [2]: not significantly | activity (%) of ES in FITC-casein hydrolysis ([6]; ES (0.25 μg) pre-incubated with 0.04 mM inhibitor): 43.5% | activity (%) of ES in FITC-casein hydrolysis ([6]; ES (0.25 μg) pre-incubated with 0.12 mM inhibitor): 47% | activity (%) of ES in FITC-casein hydrolysis [6, 10]: 54% | residual serine proteinase activity from ES ([6]; ES pre-incubated with APMSF, summary over the concentrations): approximately 50%

CC(C)CC(=O)N[C@H](C(=O)N[C@H](C(=O)N[C@@H](CC(C)C)[C@@H](O)CC(=O)N[C@@H](C)C(=O)N[C@@H](CC(C)C)[C@@H](O)CC(=O)O)C(C)C)C(C)C [pepstatin A] (Isovaleryl-VV[Sta]A[Sta]-OH)
inhibition of aspartyl activity [8]: successfully inhibited
